Patent US11104648B2, “Pyrazole derivative” (Zhejiang Research Institute of Chemical Industry Co., Ltd., priority 2018, dated 2021)
Where two headings read alike, the source gives them in different places.

Legend:
Assay type in all cases: in vivo
[1] = system: Eggs of Tetranychus Cinnabarinus; test: Activity assay of eggs of Tetranychus cinnabarinus (spray method, ovicidal); details: for pest or weed control at 5 µg/mL / pest or weed control at 2 µg/mL: Tetranychus cinnabarinus
Description: According to the solubility of the test compound, the crude drug was dissolved in N N-dimethylformamide, and then prepared into a test solution of the desired concentration with 1‰ Tween 80 aqueous solution. The content of N. N-dimethylformamide in the solution should not exceed 10%.
Spray method. The broad bean leaves with petioles were cut and inserted into a bottle with water. A certain number of female mites were placed, 24h later, adult mites were removed, and spray treatment was performed in 24 h. The experiment was repeated three times, and a blank control was set, and placed to an observation room (26±2° C., humidity 70%˜80%, 16h light per day) for culture. When the blank control group was incubated, the results were investigated. The non-incubated ones were used as death for investigation.

[2] = system: Tetranychus cinnabarinus Nymphs; test: Activity assay of Tetranychus cinnabarinus nymphs (spray on broad bean leaves); details: 48 h; for pest or weed control at 0.5 µg/mL: concentration 0.5 mg/L
Description: According to the solubility of the test compound, the crude drug was dissolved in N, N-dimethylformamide, and then prepared into a test solution of the desired concentration with 1‰ Tween 80 aqueous solution. The content of N,N-dimethylformamide in the solution should not exceed 10%.
The broad bean leaves with petioles were cut and inserted into a small bottle with water. A certain number of brightly colored, active female adult mites were placed, 24h later, adult mites were removed, and leaves with insufficient eggs were removed. When eggs were hatched and grew into nymphs, spray treatment was performed. The experiment was repeated three times, and a blank control was set, and placed to an observation room (26±2° C., humidity 70%˜80%, 16h light per day) for culture. 48 h later, the results were investigated. The nymphs were gently touched during investigation, and if no response, they were regarded as deaths.

[3] = system: adult Tetranychus cinnabarinus; test: Activity assay of adult Tetranychus cinnabarinus (whole-plant spray on bean seedlings); details: 48 h; for pest or weed control at 1.25 µg/mL: concentration 1.25 mg/L
Description: According to the solubility of the test compound, the crude drug was dissolved in N, N-dimethlfornamide, and then prepared into a test solution of the desired concentration with 1‰ Tween 80 aqueous solution. The content of N,N-dimethylformamide in the solution should not exceed 10%.
Two euphylla bean seedlings were taken, after inoculated with adult Tetranychus cinnabarinus and the base number was investigated, whole plants were sprayed with a hand-held sprayer. The experiment was repeated three times for each treatment, after treatment, placed in a standard observation room after treatment, to investigate the survival number of mites in 48 hand calculate the death rate.

[4] = concentration 2.5 mg/L, read-out: nymph-killing activity
[5] = concentration 2.5 mg/L, read-out: adult mite-killing activity
[6] = concentration 5 mg/L, spray, non-incubated eggs counted as dead, read-out: ovicidal activity
[7] = read-out: nymph-killing activity
[8] = nymphs, parallel determination, read-out: Death rate (%)
[9] = adult mites, parallel determination, read-out: Death rate (%)
[10] = read-out: adult mite-killing activity
[11] = concentration 2 mg/L, spray, read-out: ovicidal activity
[12] = eggs, concentration 2 mg/L, parallel determination, read-out: Death rate (%)

SMILES	pest or weed control at 2.5 µg/mL [2, 4]	pest or weed control at 2.5 µg/mL [3, 5]	pest or weed control at 5 µg/mL [1, 6]	other results
COC(=O)OC(C)O/C(=C(/C#N)c1ccc(C(C)(C)C)cc1)c1c(Cl)c(C)nn1C (racemic) [Compound 675]	–	–	–	Death rate (%) ([1]; eggs, concentration 2 mg/L, parallel determination): 100%
CC(=O)OCO/C(=C(/C#N)c1ccc(C(C)(C)C)cc1)c1cc(C)nn1C [Compound 1]	≥ 95%	≥ 90%	≥ 90%	–
CCC(=O)OCO/C(=C(/C#N)c1ccc(C(C)(C)C)cc1)c1cc(C)nn1C [Compound 2]	≥ 95%	≥ 90%	≥ 90%	–
CCCC(=O)OCO/C(=C(/C#N)c1ccc(C(C)(C)C)cc1)c1cc(C)nn1C [Compound 3]	≥ 95%	≥ 90%	≥ 90%	–
Cc1cc(/C(OCOC(=O)C(C)C)=C(\C#N)c2ccc(C(C)(C)C)cc2)n(C)n1 [Compound 4]	≥ 95%	≥ 90%	≥ 90%	–
Cc1cc(/C(OCOC(=O)C(C)(C)C)=C(\C#N)c2ccc(C(C)(C)C)cc2)n(C)n1 [Compound 5]	≥ 95%	≥ 90%	≥ 90%	–
CCCCC(=O)OCO/C(=C(/C#N)c1ccc(C(C)(C)C)cc1)c1cc(C)nn1C [Compound 6]	≥ 95%	≥ 90%	≥ 90%	–
Cc1cc(/C(OCOC(=O)CC(C)C)=C(\C#N)c2ccc(C(C)(C)C)cc2)n(C)n1 [Compound 7]	≥ 95%	≥ 90%	≥ 90%	–
CC(C)(C)C(=O)OCOC(=C(C#N)c1ccc(C(C)(C)C)cc1)c1ccccc1C(F)(F)F [Compound 8-1, reference compound]	< 80%	< 80%	< 30%	pest or weed control at 0.5 µg/mL [2, 7]: < 30%; pest or weed control at 0.5 µg/mL [2, 8]: 25%; pest or weed control at 1.25 µg/mL [3, 9]: 45%; pest or weed control at 1.25 µg/mL [3, 10]: < 50%; pest or weed control at 2 µg/mL [1, 11]: 0%; pest or weed control at 2 µg/mL [1, 12]: 0%
CC(=O)OCOC(=C(C#N)c1ccc(C(C)(C)C)cc1)c1ccccc1C(F)(F)F [Compound 8-2, reference compound]	< 80%	< 80%	< 30%	pest or weed control at 0.5 µg/mL [2, 7]: < 30%; pest or weed control at 0.5 µg/mL [2, 8]: 0%; pest or weed control at 1.25 µg/mL [3, 9]: 30%; pest or weed control at 1.25 µg/mL [3, 10]: < 50%; pest or weed control at 2 µg/mL [1, 11]: 0%; pest or weed control at 2 µg/mL [1, 12]: 0%
CCCC(=O)OC(C)OC(=C(C#N)c1ccc(C(C)(C)C)cc1)c1ccccc1C(F)(F)F (stereo not shown) [Compound 8-3, reference compound]	< 80%	< 80%	< 30%	pest or weed control at 0.5 µg/mL [2, 7]: < 30%; pest or weed control at 0.5 µg/mL [2, 8]: 30%; pest or weed control at 1.25 µg/mL [3, 9]: 45%; pest or weed control at 1.25 µg/mL [3, 10]: < 50%; pest or weed control at 2 µg/mL [1, 11]: 0%; pest or weed control at 2 µg/mL [1, 12]: 0%
CCCC(=O)OCOC(=C(C#N)c1ccc(C(C)(C)C)cc1)c1ccccc1C(F)(F)F [Compound 8-4, reference compound]	< 80%	< 80%	< 30%	pest or weed control at 0.5 µg/mL [2, 7]: < 30%; pest or weed control at 0.5 µg/mL [2, 8]: 15%; pest or weed control at 1.25 µg/mL [3, 9]: 50%; pest or weed control at 1.25 µg/mL [3, 10]: < 50%; pest or weed control at 2 µg/mL [1, 11]: 0%; pest or weed control at 2 µg/mL [1, 12]: 0%
COCC(=O)OCO/C(=C(/C#N)c1ccc(C(C)(C)C)cc1)c1cc(C)nn1C [Compound 8]	≥ 95%	≥ 90%	≥ 90%	–
Cc1cc(/C(OCOC(=O)C2CC2)=C(\C#N)c2ccc(C(C)(C)C)cc2)n(C)n1 [Compound 9]	≥ 95%	≥ 90%	≥ 90%	–
CSCC(=O)OCO/C(=C(/C#N)c1ccc(C(C)(C)C)cc1)c1cc(C)nn1C [Compound 10]	≥ 95%	≥ 90%	≥ 90%	–
Cc1cc(/C(OCOC(=O)C2CCCCC2)=C(\C#N)c2ccc(C(C)(C)C)cc2)n(C)n1 [Compound 11]	≥ 95%	≥ 90%	≥ 90%	–
Cc1cc(/C(OCOC(=O)CF)=C(\C#N)c2ccc(C(C)(C)C)cc2)n(C)n1 [Compound 12]	–	–	–	pest or weed control at 2.5 µg/mL [2, 7]: ≥ 95%; pest or weed control at 2.5 µg/mL [3, 10]: ≥ 90%; pest or weed control at 5 µg/mL ([1]; read-out: ovicidal activity): ≥ 90%
